Assay results published in patent publication US12617762B2, “Carboxy derivatives with antiinflamatory properties” (Sitryx Therapeutics Limited, priority 2019, dated 2026).
Structures can show the parent of a compound that is named as a salt. Where two headings read alike, the source gives them in different places.

Legend:
[1] = tested on: IL-1β cytokine output from THP-1s; assay: THP-1 AlphaLISA IL-1β cytokine inhibition assay; type: cell-based; settings: for IC50: LPS then nigericin
Protocol: Measuring Inhibitory Effects on IL-1β Cytokine Output from THP-1s
The cytokine inhibition profiles of compounds of formula (I) were determined in a differentiated THP-1 cell assay. All assays were performed in RPMI-1640 growth medium (Gibco), supplemented with 10% fetal bovine serum (FBS; Gibco), 1% penicillin-streptomycin and 1% sodium pyruvate unless specified otherwise. The IL-1β cytokine inhibition assay was run in a background of differentiated THP-1 cells as described below. All reagents described were from Sigma-Aldrich unless specified otherwise. Compounds were prepared as 10 mM DMSO stocks.
THP-1 cells were expanded as a suspension up to 80% confluence in appropriate growth medium. Cells were harvested, suspended, and treated with an appropriate concentration of phorbol 12-myristate 13-acetate (PMA) over a 72 hr period (37° C./5% CO2).
Following 72 hrs of THP-1 cell incubation, cellular medium was removed and replaced with fresh growth media containing 1% of FBS. Working concentrations of compounds were prepared separately in 10% FBS treated growth medium and pre-incubated with the cells for 30 minutes (37° C./5% CO2). Following the 30 minute compound pre-incubation, THP-1s were treated with an appropriate concentration of LPS and the cells were subsequently incubated for a 24 hr period (37° C./5% CO2). An appropriate final concentration of Nigericin was then dispensed into the THP-1 plates and incubated for 1 hour (37° C./5% CO2) before THP-1 supernatants were harvested and collected in separate polypropylene 96-well holding plates.
Reagents from an IL-1β and IL-6 commercial kit (Perkin Elmer) were prepared and run according to the manufacturer's instructions. Subsequently, fluorescence signal detection in a microplate reader was measured (EnVision® Multilabel Reader, Perkin Elmer).
Percentage inhibition was calculated per cytokine by normalising the sample data to the high and low controls used within each plate (+/− LPS respectively).

[2] = tested on: NRF2 (nuclear factor erythroid 2-related factor 2); assay: NRF2 +/-GSH activation assay (DiscoverX PathHunter NRF2 translocation kit, U2OS cells); type: cell-based; settings: for NRF2 activation +GSH Emax / NRF2 activation −GSH Emax: normalised to DMF high control
Protocol: Measuring Compound Activation Effects on the Anti-Inflammatory Transcription Factor NRF2 in DiscoverX PathHunter NRF2 Translocation Kit
Potency and efficacy of compounds of formula (I) against the target of interest to activate NRF2 (nuclear factor erythroid 2-related factor 2) were determined using the PathHunter NRF2 translocation kit (DiscoverX). The NRF2 translocation assay was run using an engineered recombinant cell line, utilising enzyme fragment complementation to determine activation of the Keap1-NRF2 protein complex and subsequent translocation of NRF2 into the nucleus. Enzyme activity was quantified using a chemiluminescent substrate consumed following the formation of a functional enzyme upon PK-tagged NRF2 translocation into the nucleus.
The assay was run under both +/−GSH (glutathione) conditions to determine the sensitivity of the compounds' NRF2-activating abilities to attenuation by GSH.
Additionally, a defined concentration of DMF was used as the ‘High’ control to normalise test compound activation responses to.
U2OS PathHunter eXpress cells were thawed from frozen prior to plating. Following plating, U2OS cells were incubated for 24 hrs (37° C./5% CO2) in commercial kit provided cell medium.
Following 24 hrs of U2OS incubation, cells were directly treated with an appropriate final concentration of compound, for −GSH conditions or, for +GSH conditions, an intermediate plate containing 6× working concentrations of compound stocks was prepared in a 6 mM working concentration of GSH solution (solubilised in sterile PBS). Following a 30 minute compound-GSH pre-incubation (37° C./5% CO2) for +GSH treatment, plated U2OS cells were incubated with an appropriate final concentration of compound and GSH.
Following compound (+/−GSH) treatment, the U2OS plates were incubated for a further 6 hours (37° C./5% CO2) before detection reagent from the PathHunter NRF2 commercial kit was prepared and added to test plates according to the manufacturer's instructions. Subsequently, the luminescence signal detection was measured in a microplate reader (PHERAstar®, BMG Labtech).
Percentage activation was calculated by normalising the sample data to the high and low controls used within each plate (+/−DMF).

[3] = Homo sapiens, THP-1, differentiated THP-1 cells
[4] = +GSH, 30 minute compound-GSH pre-incubation, read-out: NRF2 activation +GSH EC50
[5] = −GSH, U2OS PathHunter cells, 6 hours compound treatment, read-out: NRF2 activation −GSH EC50

SMILES | IC50 [1, 3] [µM] | EC50 [2, 4] [µM] | NRF2 activation +GSH Emax ([2]; +GSH) [%] | EC50 [2, 5] [µM] | NRF2 activation −GSH Emax ([2]; −GSH) [%] | IC50 ([1]; differentiated THP-1 cells) [µM] | IL-1β lowering, result in words ([1]; THP-1 IL-1β assay)
C=C(Cc1nc(Cc2cccc(CCCC)c2)no1)C(=O)O [Example 29, 2-((3-(3-butylbenzyl)-1,2,4-oxadiazol-5-yl)methyl)acrylic acid] | 22.8 | 11.2 | 183 | 7.6 | 179 | – | –
C=C(Cc1nc(Cc2ccc(C(F)(F)F)c(Cl)c2)no1)C(=O)O [Example 137, 2-((3-(3-chloro-4-(trifluoromethyl)benzyl)-1,2,4-oxadiazol-5-yl)methyl)acrylic acid] | 60.5 | – | – | – | – | – | –
C=C(Cc1noc(-c2ccc(OCCCC)cc2)n1)C(=O)O [Example 96, 2-((5-(4-butoxyphenyl)-1,2,4-oxadiazol-3-yl)methyl)acrylic acid] | > 31.6 | 12.4 | 115 | 11.7 | 170 | – | –
C=C(Cc1noc(Cc2ccc(CCCC)cc2)n1)C(=O)O [Example 95, 2-((5-(4-butylbenzyl)-1,2,4-oxadiazol-3-yl)methyl)acrylic acid] | > 31.6 | 3.9 | 183 | 2.8 | 217 | – | –
C=C(Cc1nc(-c2ccc(OCCCC)c(Cl)c2)no1)C(=O)O [Example 160, 2-((3-(4-butoxy-3-chlorophenyl)-1,2,4-oxadiazol-5-yl)methyl)acrylic acid] | > 10 | 4.1 | 238 | 5 | 216 | – | –
C=C(Cc1nc(C2(c3ccc(S(=O)(=O)C(F)(F)F)cc3)CC2)no1)C(=O)O [Example 122, 2-((3-(1-(4-((trifluoromethyl)sulfonyl)phenyl)cyclopropyl)-1,2,4-oxadiazol-5-yl)methyl)acrylic acid] | 75.5 | – | – | – | – | – | –
C=C(Cc1nc(-c2ccc(N3CCCC3)cc2)no1)C(=O)O [Example 132, 2-((3-(4-(pyrrolidin-1-yl)phenyl)-1,2,4-oxadiazol-5-yl)methyl)acrylic acid] | 29.9 | – | – | – | – | – | –
C=C(Cc1nc(-c2ccc(OC(C)CC)cc2)no1)C(=O)O (stereo in doubt) [Example 145, (S)-2-((3-(4-(sec-butoxy)phenyl)-1,2,4-oxadiazol-5-yl)methyl)acrylic acid] | – | 31.4 | 135 | 28.4 | 170 | 35.6 | –
C=C(Cc1nc(-c2ccc(OCCC)cc2)no1)C(=O)O [Example 149, 2-((3-(4-propoxyphenyl)-1,2,4-oxadiazol-5-yl)methyl)acrylic acid] | 50 | – | – | – | – | – | –
C=C(Cc1nc(-c2ccc(OCCCC)c(C(F)(F)F)c2)no1)C(=O)O [Example 161, 2-((3-(4-butoxy-3-(trifluoromethyl)phenyl)-1,2,4-oxadiazol-5-yl)methyl)acrylic acid] | > 10 | 7.2 | 114 | 25.1 | 258 | – | –
C=C(Cc1nc(CCCCCCC(F)(F)CF)no1)C(=O)O [Example 47, 2-((3-(7,7,8-trifluorooctyl)-1,2,4-oxadiazol-5-yl)methyl)acrylic acid] | > 100 | 47.1 | 86 | 41.4 | 131 | – | not effective
C=C(Cc1nc(Cc2ccc(Br)c(Cl)c2)no1)C(=O)O [Example 139, 2-((3-(4-bromo-3-chlorobenzyl)-1,2,4-oxadiazol-5-yl)methyl)acrylic acid] | 41.1 | – | – | – | – | – | –
C=C(Cc1nc(CCCc2ccc(Cl)cc2)no1)C(=O)O [Example 33, 2-((3-(3-(4-chlorophenyl)propyl)-1,2,4-oxadiazol-5-yl)methyl)acrylic acid] | 83.5 | 23.3 | 160 | 18.3 | 150 | – | –
C=C(Cc1nc(-c2ccc(OC3CCCC3)cc2)no1)C(=O)O [Example 143, 2-((3-(4-cyclopentyloxyphenyl)-1,2,4-oxadiazol-5-yl)methyl)acrylic acid] | 22.1 | 14.5 | 195 | 12 | 243 | – | –
C=C(Cc1nc(C2(c3ccc(OC4CC4)cc3)CC2)no1)C(=O)O [Example 114] | 55.2 | – | – | – | – | – | –
C=C(Cc1nc(CCCC)c(CCCC)o1)C(=O)O [Example 123, 2-((4,5-dibutyloxazol-2-yl)methyl)acrylic acid] | > 100 | 62.4 | 42 | 6.6 | 111 | – | –
C=C(Cc1nc(-c2ccc(S(F)(F)(F)(F)F)cc2)no1)C(=O)O [Example 121, 2-((3-(4-(pentafluoro-λ^6-sulfaneyl)phenyl)-1,2,4-oxadiazol-5-yl)methyl)acrylic acid] | 61.8 | – | – | – | – | – | –
C=C(Cc1nc(-c2ccc(O[C@H](C)CC)cc2)no1)C(=O)O [Example 144, (R)-2-((3-(4-(sec-butoxy)phenyl)-1,2,4-oxadiazol-5-yl)methyl)acrylic acid] | – | 31.1 | 139 | 28.4 | 167 | > 100 | –
C=C(Cc1nc(-c2ccc(OCCC)c(Cl)c2)no1)C(=O)O [Example 130, 2-((3-(3-chloro-4-propoxyphenyl)-1,2,4-oxadiazol-5-yl)methyl)acrylic acid] | > 100 | 37.4 | 129 | 36.5 | 177 | – | –
C=C(Cc1nc(Oc2ccc(CCCC)cc2)no1)C(=O)O [Example 126, 2-((3-(4-butylphenoxy)-1,2,4-oxadiazol-5-yl)methyl)acrylic acid] | 32.1 | – | – | – | – | – | –
C=C(Cc1nc(-c2ccc(Br)cc2)no1)C(=O)O [Example 118, 2-((3-(4-bromophenyl)-1,2,4-oxadiazol-5-yl)methyl)acrylic acid] | 59.6 | – | – | – | – | – | –
C=C(Cc1noc(C2(c3ccc(OC(F)(F)F)cc3)CC2)n1)C(=O)O [Example 99, 2-((5-(1-(4-(trifluoromethoxy)phenyl)cyclopropyl)-1,2,4-oxadiazol-3-yl)methyl)acrylic acid] | 52.3 | – | – | – | – | – | –
C=C(Cc1nc(C(F)c2ccc(Cl)cc2)no1)C(=O)O (stereo not shown) [Example 152, 2-((3-((4-chlorophenyl)fluoromethyl)-1,2,4-oxadiazol-5-yl)methyl)acrylic acid] | 36.4 | – | – | – | – | – | –
COC(=O)/C=C/C(=O)OC [dimethyl fumarate, reference compound] | – | > 100 | 20 | 6.1 | 100 | – | –
C=C(Cc1nc(C(F)(F)c2ccc(OC)c(Cl)c2)no1)C(=O)O [Example 150, 2-((3-((3-chloro-4-methoxyphenyl)difluoromethyl)-1,2,4-oxadiazol-5-yl)methyl)acrylic acid] | 52.7 | – | – | – | – | – | –
C=C(Cc1nc(C2CCc3c(Cl)cc(Cl)cc32)no1)C(=O)O (stereo not shown) [Example 148, 2-((3-(4,6-dichloro-2,3-dihydro-1H-inden-1-yl)-1,2,4-oxadiazol-5-yl)methyl)acrylic acid] | 42.6 | – | – | – | – | – | –
C=C(Cc1nc(-c2ccc(I)cc2)no1)C(=O)O [Example 119, 2-((3-(4-iodophenyl)-1,2,4-oxadiazol-5-yl)methyl)acrylic acid] | 59.6 | – | – | – | – | – | –
